Test results published in publication PMC10046037, “GABRG2 Variants Associated with Febrile Seizures” (Biomolecules, 2023).

Target: T1, α1β3γ2 GABAA receptor, γ2R224X variant (Homo sapiens, UniProt P14867+P28472)
T1 construct: expressed in transfected cells; host or cells: HEK293T
T1 sequence (P14867 28-456): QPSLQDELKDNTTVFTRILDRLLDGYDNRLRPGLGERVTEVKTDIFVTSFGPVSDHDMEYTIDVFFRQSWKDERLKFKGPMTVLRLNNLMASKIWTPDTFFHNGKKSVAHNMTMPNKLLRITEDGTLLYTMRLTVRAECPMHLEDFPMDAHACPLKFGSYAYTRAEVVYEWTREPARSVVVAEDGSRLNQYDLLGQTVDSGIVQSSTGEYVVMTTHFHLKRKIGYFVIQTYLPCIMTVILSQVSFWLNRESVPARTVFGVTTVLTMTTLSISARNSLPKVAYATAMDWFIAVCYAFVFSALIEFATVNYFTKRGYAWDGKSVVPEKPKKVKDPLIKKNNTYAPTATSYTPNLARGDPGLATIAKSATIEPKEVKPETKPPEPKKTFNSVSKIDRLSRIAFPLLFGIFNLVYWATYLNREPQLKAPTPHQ
T1 sequence (P28472 1-473 isoform P28472-2): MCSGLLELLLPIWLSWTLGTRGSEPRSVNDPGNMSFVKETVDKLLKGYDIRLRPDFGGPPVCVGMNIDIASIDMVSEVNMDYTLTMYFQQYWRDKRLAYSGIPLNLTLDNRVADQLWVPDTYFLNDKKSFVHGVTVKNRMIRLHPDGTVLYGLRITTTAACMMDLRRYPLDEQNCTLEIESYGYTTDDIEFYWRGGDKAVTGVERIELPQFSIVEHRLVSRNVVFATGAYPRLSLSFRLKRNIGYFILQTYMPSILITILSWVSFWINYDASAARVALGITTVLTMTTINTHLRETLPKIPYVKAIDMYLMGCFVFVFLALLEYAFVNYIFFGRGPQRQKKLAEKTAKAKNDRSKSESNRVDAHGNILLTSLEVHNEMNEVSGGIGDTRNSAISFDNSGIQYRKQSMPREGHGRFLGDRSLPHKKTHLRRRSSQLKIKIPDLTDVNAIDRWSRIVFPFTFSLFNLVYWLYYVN
Test: Automated patch clamp of GABA-elicited currents (SyncroPatch 384PE), γ2R224X
Type: cell-based
Conditions: mean
Experimental: The coding sequences of human α1 (GABRA1, NM_000806), β3 (GABRB3, NM_021912), and γ2 (GABRG2, NM_198904.2) GABAAR subunits were subcloned into the pcDNA3.1 expression vectors (Invitrogen, Waltham, MA, USA).
HEK293T cells (ATCC, CRL-11268) were cultured at 37 °C in a humidified 5% CO2 incubator and maintained in Dulbecco’s modified Eagle’s medium (Invitrogen) supplemented with 10% fetal bovine serum (Life Technologies, Carlsbad, CA, USA), and 100 IU/mL of penicillin/streptomycin (Life Technologies). For the expression experiments, 4 × 10^5 cells were transfected using polyethylenimine (PEI) reagent (40 kD, Polysciences, Warrington, PA, USA) at a DNA: to transfection reagent ratio of 1:2.5 and harvested 36 h after transfection. To express WT and variant α1β3γ2 receptors, a total of 3 µg of α1, β3, and γ2 (WT or mutant) subunit cDNAs were transfected at a ratio of 1:1:1 into 60 mm culture dishes. For the mock-transfected condition, an empty pcDNA3.1 vector was added for a final cDNA transfection amount of 3 μg. For the electrophysiology experiments, 2.5 × 10^5 cells were plated in 100 mm culture dishes and transfected after 24 h with 3 μg of cDNA of each α1, β3, γ2 (wild-type or mutant) subunit, using X-tremeGENE HP DNA transfection Reagent (Roche Diagnostics, Basel, Switzerland), following the manufacturer’s protocol. Recordings were obtained forty-eight hours after transfection.
Whole-cell patch clamp recordings were conducted according to the manufacturer’s standard procedure for the SyncroPatch 384 [31]. Whole-cell voltage-clamp recordings were performed at room temperature on HEK293T cells 48 h after transfection with GABAAR subunits, using the SyncroPatch 384PE (Nanion Technologies, Munich, Germany). Cells, at a concentration of 400,000 cells/mL, were harvested in suspension in external solution containing 140 mM of NaCl, 2 mM of CaCl2, 4 mM of KCl, 1 mM of MgCl2, 5 mM of glucose, and 10 mM of HEPES (pH 7.4 with NaOH, 298 mOsm). The cells were loaded in a multi-hole (4 holes per well) 384-well Nanion patch clamp (NPC) chip with a thick borosilicate glass bottom and an average resistance pore size of […]. Built-in electrophysiological protocols were used, and the data were digitized using PatchControl 384 (Nanion Technologies) application. Using PatchControl 384, electrophysiological parameters, such as seal resistance, capacitance, and series resistance, were determined for each well after the application of a test pulse, and subsequently monitored over time. […] The currents were normalized to the maximal response of each well, and the concentration–response curves were calculated from single-point additions. The EC50 values for each variant or wild-type receptor were calculated across multiple wells for each experimental condition.

Q: How did the Deactivation (1 mM GABA for 5 ms, HEK293T, -80 mV) turn out when NCCCC(=O)O [GABA, γ-aminobutyric acid] was run?
A: 350.1 ms

Q: And the “IMAX (maximal GABA-evoked peak current)” value (1 mM GABA for 5 ms, HEK293T)?
A: 0.85 nA

Q: What about the “IMAX variant/IMAX WT” value (1 mM GABA) of the same compound?
A: 42.52%

Q: And the “Rise Time” value (10–90% rise time, 1 mM GABA for 5 ms, HEK293T)?
A: 72.64 ms
